Measured values from US9616062B2, “Cyclin dependent kinase inhibitors and methods of use” (priority 2009, dated 2017).

Tests used:
[1] = system: purified human peripheral B cells (CD19+); experiment: Human B cell proliferation after anti-IgM stimulation (BrdU incorporation); type: cell-based
Description: FIG. 20: CDK4/6 inhibitors suppress B cell proliferation after stimulation through BCR. B cells were purified by Automacs selection of CD19+ cells. The BrdU incorporation of purified human peripheral B cells was determined after anti-IgM stimulation with or without CDK4/6 inhibitor treatment. The fraction of proliferating B cells reduced ˜10 fold after L4D inhibition. L4D=2BrIC
Similar results were seen using human lymphocytes. […] Human lymphocytes are sorted to T(CD3+) and B(CD19+) cells and treated in vitro with CDK4/6 inhibitor prior to stimulation with PMA and Inomycin (P+I)+OKT3 (Tcells) or IgM (Bcells), with proliferation assessed by BrdU uptake and Ki67y expression, and activation assessed by CD25 expression. […] In FIG. 15, the effects of CDK4/6 inhibition on specific Tcell fractions is assessed, with and without TCR, showing CDK4/6 inhibition has a greater effect on proliferation of memory cells relative to naïve cells. […] These alterations in proliferation are associated with decreased T cell activation as measured by CD25 expression.
Cohorts of wild type mice were treated with vehicle or a CDK4/6 inhibitor as in FIG. 11. […] Unstimulated mice were treated for 24 hours with PD0332991 and homeostatic B cell proliferation measured by Ki67 staining after appropriate sorting. […]

[2] = system: murine memory and naive T cells; experiment: Homeostatic T cell proliferation in mice (BrdU incorporation, Ki67); type: in vivo, mouse; conditions: murine cells, acute inhibition
Description: FIG. 11A: Acute inhibition of CDK4/6 selectively suppresses memory T cell homeostatic proliferation in mice. Mice were treated with PD0332991 (150 mg/kg by oral gavage). Proliferation of T-cells were assessed using BrdU and flow cytometry.
Animals were treated with CDK4/6 inhibitor (PD0332991, open bars) or vehicle (shaded bars) for 24 hours and euthanized. Splenocytes were isolated and stained for B and T cell markers. After gating on appropriate populations, Ki67 staining was performed as an indicator of proliferation and S-phase. Error bars show +/−SEM.
Acute, pharmacologic inhibition of CDK4/6 suppresses lymphocyte proliferation with the most pronounced effect on memory T cell homeostatic proliferation and germinal center formation in mice. To determine whether inhibiting CDK4/6 affects memory cell generation and maintenance, mice were treated with selective CDK4/6 inhibitors, PD 0332991 or an unrelated selective CDK4/6 inhibitor, 2BrIC. 2BrIC was synthesized by OTAVA Chemicals (Kiev, Ukraine) and can be prepared according to methods described in Zhu et al., J. Med. Chem. 46, 2027-2030 (2003).

[3] = system: human peripheral blood T cells (memory and naive); experiment: Human peripheral blood T cell proliferation after PMA and ionomycin stimulation (BrdU, Ki-67 FACS); type: cell-based
Description: FIG. 13: CDK4/6 inhibitors suppress T cell proliferation upon stimulation through TCR pathway in both memory and naïve compartments. Human peripheral blood T cells were purified using Automacs by CD3 positive selection before being treated with CDK4/6 inhibitors and stimulated with PMA and Inomycin for 48 hrs. The proliferation of memory […] T cells after stimulation by PMA and Inomycin was measured by FACS staining of BrdU+ or Ki-67+ cells. The percentages of inhibition are shown, which indicates more inhibition of memory compartment than naïve compartment.
FIG. 14: CDK4/6 inhibitors suppress T cell proliferation upon stimulation through TCR pathway. […] Proliferation determined by BrdU or Ki67 incorporation. […]
FIG. 15: Changes of CD4 T cell composition after CDK4/6 inhibition. […] The memory and terminal differentiated T cell fractions as assessed by BrdU incorporation are reduced after CDK4/6 inhibition. […]
FIG. 16: Changes of CD4 T cell composition after CDK4/6 inhibition. […] The memory and terminal differentiated T cell fractions as assessed by Ki67 staining are reduced after CDK4/6 inhibition. […]
Similar results were seen using human lymphocytes. […] In FIG. 15, the effects of CDK4/6 inhibition on specific Tcell fractions is assessed, with and without TCR, showing CDK4/6 inhibition has a greater effect on proliferation of memory cells relative to naïve cells. […]

[4] = system: renal cell proliferation in female FVB wt mice; experiment: EdU incorporation into whole kidney of cisplatin-treated mice (flow cytometry); type: in vivo, mouse; conditions: kidney single cell suspension, 72 h; cisplatin 15 mg/kg IP; PD0332991 100 mg/kg per day in chow or no drug
Description: FIG. 6: CDK4/6 inhibition blocks EdU incorporation into whole kidney in mice treated with cisplatin. […] EdU ([…]) was given IP every 24 hours prior to sacrifice. Kidneys were collected and single cell isolates were prepared and stained for EdU incorporation. Proliferation was assessed by flow cytometry. Data represents % of EdU staining in untreated, cisplatin-treated and cisplatin/PD0332991 treated cells.
[…] Proliferation was assessed by using BrdU (1 mg IP injection) every 6 hours for 24 hours prior to sacrifice or […] (0.1 mg IP) every 24 hours for 3 days prior to sacrifice.
Kidneys were harvested from mice and single cells were isolated using a gentleMACS™ tissue dissociator (Miltinyi Biotec, Bergisch Gladbach, Germany). Briefly, kidneys were cut into small pieces and placed in 10 ml collagenase (1 mg/ml) in a gentleMACS™ C tube (Miltinyi Biotec, Bergisch Gladbach, Germany). Tissue was dissociated following the manufacturer's recommendations (Miltinyi Biotec, Bergisch Gladbach, Germany). Cells were then incubated for 5 minutes in ACK buffer to lyse red blood cells, filtered and pelleted. Cells were resuspended in 4% paraformaldehyde and stored overnight at 4° C. For quantification of EdU incorporation, the cells were fixed, permeabilized, and stained with an APC EdU Flow Kit according to the manufacturer's instruction (Invitrogen Corporation, Carlsbad, Calif., United States of America). Flow cytometric analysis was performed using a CyAn ADP (Dako, Glostrup, Denmark). For each sample, a minimum of 500,000 cells was analyzed and the data were analyzed using FlowJo software (Tree Star, Inc., Ashland, Oreg., United States of America).
The kidney is relatively quiescent until challenged by a renal insult. Therefore, to determine whether renal cell proliferation was dependent on CDK4/6 activity in vivo, renal cell proliferation was stimulated by treating female FVB wt mice with cisplatin, a known nephrotoxic chemotherapeutic agent. At time 0 hr, mice were started on chow delivering PD0332991 100 mg/kg per day or standard chow with no drug. […]

Which “reduction of the fraction of proliferating B cells (BrdU)” value [1] does the source give for `O=C1NC(=O)c2c1c1c3ccccc3[nH]c1c1[nH]c3cc(Br)ccc3c21` [2BrIC, 2-bromo-12,13-dihydro-5H-indolo[2,3-a]pyrrolo[3,4]-carbazole-5,6-dione] here?
The value was about 10 fold.

What about the “homeostatic proliferation of memory vs naive T cells (BrdU incorporation, Ki67 expression)” value [2] of the same compound?
The value was “more significant decrease in homeostatic proliferation of memory T cells than naive T cells”.

And the “proliferation of memory vs naive T cells (BrdU incorporation, Ki67 expression)” value [3]?
Its value is “more significant decrease in homeostatic proliferation of memory T cells than naive T cells”.

`N.N.[Cl][Pt][Cl]` [cisplatin] was tested. Which “cells labeled with EdU” value [4] did it give?
Its value is “approximately 17%”.
